Test results: US6790833B2, “Antifungal and antibacterial agents” (priority 2001, dated 2004)
Where a SMILES comes first, the peptide text is derived from it.

Tests used:
C. neoformans [1] = experiment: Fungal transmembrane potential, DiSC3(5) dye release; type: cell-based, Cryptococcus neoformans; details: peptide 18 μM, 1500 second
Protocol: (§1) Peptide-induced permeabilization of C. albicans and C. neoformas cell membranes was monitored by measuring changes in transmembrane potential. Measurements were carried out using the transmembrane potential sensitive dye 3,3′-dipropyl-2,2′-thiadicarbocyanine iodide (DiSC3(5)). Fungi were grown overnight on SAB plates and resuspended in 10 mM Na phosphate buffer pH 7.4 at a concentration of 1×10^5 cells/ml. Dye was diluted in ethanol to achieve a final concentration of 714 nM. […] The use of this dye in fungal cells to monitor changes in permeabilization is reliable and well documented. This cationic dye accumulates on membranes, is translocated into the lipid bilayer and aggregates within the confined membrane interior. Once aggregated inside the cell, the molecules interact with each other, losing energy, and decreasing fluorescence through a process called quenching. If permeabilization occurs, dye is released into the medium and it regains its fluorescent properties, allowing it to be detected. Experiments were carried out using a spectrofluorimeter (Perkin Elmer LS 50 B). A water bath and circulator was connected to the machine.

C. neoformans [2] = experiment: Antifungal (cidal) activity assay, loss of cell viability; type: cell-based, Cryptococcus neoformans; details: for Loss of Cell viability (%): Cryptococcus neoformans, 6.25 μM, pH 7.4
Description: (§2) Azole-sensitive (# 2-76) and azole-resistant (# 12-99) clinical isolates of C. albicans were a gift from Dr. Theodore C. White (University of Washington and Seattle Biomedical Research Institute, Seattle, Wash.). An azole-sensitive Candida glabrata (C. glabrata) was purchased from ATCC (ATCC 90030) and its azole-resistant counterpart, clinical isolate 65C, was obtained from Dr. John E. Bennett (National Institute of Allergy and Infectious Diseases, Bethesda, Md.). A clinical isolate of Candida krusei (C. krusei) was obtained from the Erie County Medical Center, Buffalo, N.Y. Amphotericin B-sensitive (CN2) and -resistant (CN2843) C. neoformans strains were obtained from AIDS patients with cryptococcal meningitis and were generously provided by Dr. John H. Rex (University of Texas Medical School, Houston, Tex.). Additionally, Saccharomyces cerevisiae (S. serevisiae) strain S288C was provided by Dr. D. Kosman, Department of Biochemistry, University at Buffalo, the State University of New York. All fungi were streaked and grown on SAB plates at 37° C., except S. cerevisiae, which was grown at 30° C. until large colonies were formed. One colony was then picked and resuspended in Na phosphate buffer (pH 7.4) and the concentration was adjusted to 1×10^5 cell/ml for the antifungal assay described below.
(§3) Two fold serial dilutions of each peptide (ranging from 100 μM down to 1.5625 μM) in 20 μl of 10 mM Na phosphate buffer, pH 7.4, were incubated with an equal volume of bacterial or fungal strain (10^5 cells/ml) for 1.5 hours at 30° C. for S. cerevisiae and 37° C. for the rest of strains tested. At the end of incubation, the samples were diluted 20 fold and aliquots (˜120 cells) of each sample were plated on appropriate plates depending on the strain tested, as indicated above. Plates were incubated for 1 to 7 days aerobically or anaerobically, depending on the strain tested. Colonies were then counted, and the loss of cell viability was plotted as a function of protein concentration. Fungicidal activities against C. albicans and C. neoformans were also tested at 4° C.
(§4) To test the effect of inhibitors of oxidative phosphorylation in the mitochondrial system on peptide-induced killing, C. albicans and C. neoformans (CN2) were preincubated with either 20 mM sodium azide or 300 μM CCCP for 2 hours at 37° C. The cidal assays were then carried out as described above. In separate control experiments, both inhibitors were evaluated for their toxicity toward C. albicans and C. neoformans (CN2) in the absence of peptides. At these concentrations, neither compound had any cidal effect. In addition, the fungicidal activities of MUC7 20-mer and Hsn-5 (25 μM) in 10 mM Na phosphate buffer (pH 7.4) in the presence of varying concentrations (1-50 mM) of Ca^++ (as CaCl2) or Mg^++ (as MgCl2) were examined.
(§5) A time course study of peptide-induced killing was statistically analyzed by student t-test.
(§6) Two fold serial dilutions of each peptide (ranging from 50 or 25 μM down to 1.5625 μM) in 20 μl of 10 mM Na phosphate buffer, pH 7.4, were incubated with an equal volume of fungal strain (10^5 cells/ml, also in Na phosphate buffer) for 1.5 hours at 37°. At the end of incubation, the samples were diluted 20 fold with the same buffer and aliquots (˜150 cells) of each sample were plated on SAB plates. Plates were incubated for 1 to 2 days for C. albicans and C. neoformans, respectively. Colonies were then counted, and the loss of cell viability was plotted as a function of protein concentration. The statistical analysis was as described in Example 1.

C. albicans [3] = experiment: Fluorescence light and confocal microscopy, internalization of FITC-labeled peptide; type: cell-based, Candida albicans
Protocol: (§7) The internalization of MUC7 20-mer into fungi was visualized in C. albicans and C. neoformans. Untreated cells (10^7) or cells preincubated with 20 mM sodium azide, 300 μM CCCP, 50 mM Ca^++ or 50 mM Mg^++ were then treated with 50 μM FITC-MUC7 20-mer for 45-90 minutes in 100 μl of Na phosphate buffer (10 mM, pH 7.4) at 37° C. Untreated cells were also incubated with 50 μM FITC-MUC7 20-mer at 4° C. The cells were then extensively washed with phosphate buffer, concentrated and resuspended in the same buffer. The cell suspension was then quickly mounted on slides with sealed cover-slips. Fluorescence light micrographs were made on a Nikon Optiphot microscope, with a fluorescent light source.
(§8) The intracellular localization of FITC-MUC7-20mer was investigated in a double-labeling experiment using MitoTracker Red mitochondrial probe. C. albicans and C. neoformans were incubated with 500 nM MitoTracker Red in 10 mM Na phosphate buffer, pH 7.4 for 15 minutes at room temperature, washed three times with the same buffer, and subsequently incubated with 50 μM FITC-MUC7 20-mer. After 20 min. incubation at 37° C., the suspension was washed with phosphate buffer extensively. The cell suspension was then quickly mounted on slides with sealed cover-slips. Confocal fluorescence microscopy was performed with a BioRad MRC-1024 confocal microscope system with Krypton-argon laser which outputs 488, 568 and 647 nm excitation line and Nikon upright epifluorescence microscope (Zeiss 60× oil immersion planApp objective with 1.4 numerical aperture).
(§9) The internalization of MUC7 20-mer and 12-mer-3 into fungi was visualized using FITC labeled peptides. Cells (10^7) were treated with 50 μM FITC-MUC7 20-mer or 12-mer-3 for 45-90 mins in 100 μl of Na phosphate buffer (10 mM, pH 7.4) at 37° C. The cells were then processed and visualized as described in Example 1.

C. neoformans [4] = experiment: as above; type: cell-based, Cryptococcus neoformans
Protocol: as §7, §8, §9

C. albicans [5] = experiment: Fungal transmembrane potential, DiSC3(5) dye release; type: cell-based, Candida albicans; details: peptide 18 μM, 1500 second
Protocol: as §1

A. actinomycetemcomitans = experiment: Fluorescence microscopy, internalization of FITC-labeled peptide in bacteria; type: cell-based, Actinobacillus actinomycetemcomitans; details: data not shown
Description: In order to visualize the association of 20-mer with fungi or bacteria and its fungal cellular localization, N-terminal FITC-labeled MUC7 20-mer was used. […] In addition, confocal fluorescence microscopy was used to study the intracellular target of the peptides.

C. albicans [6] = experiment: Antifungal (cidal) activity assay, loss of cell viability; type: cell-based, Candida albicans; details: for Loss of Cell viability (%): Candida albicans, 6.25 μM, pH 7.4
Description: as §2, §3, §4, §5, §6

[7] = 4° C., 20 mM sodium azide, 300 μM CCCP

## CC[C@H](C)[C@H](NC(=O)[C@H](Cc1ccccc1)NC(=O)[C@@H]1CCCN1C(=O)[C@H](CCCCN)NC(=O)[C@H](CCC(N)=O)NC(=O)[C@H](Cc1c[nH]cn1)NC(=O)[C@H](C)NC(=O)[C@@H](N)CC(C)C)C(=O)N[C@@H](CCCNC(=N)N)C(=O)N[C@@H](CCCCN)C(=O)N[C@@H](CO)C(=O)N[C@@H](Cc1ccc(O)cc1)C(=O)N[C@@H](CCCCN)C(=O)N[C@@H](CS)C(=O)N[C@@H](CC(C)C)C(=O)N[C@@H](Cc1c[nH]cn1)C(=O)N[C@@H](CCCCN)C(=O)N[C@@H](CCCNC(=N)N)C(=O)N[C@@H](CS)C(=O)N[C@@H](CCCNC(=N)N)C(=O)O [Peptide 20-mer] (H-LAHQKPFIRKSYKCLHKRCR-OH; N-terminus and C-terminus assumed)
C. neoformans [1]
  release of DiSC3(5) dye (loss of membrane potential): rapid release of dye
C. neoformans [2]; 25 μM
  killing retained in the presence of Ca++: 90%
  killing retained in the presence of Mg++: 84%
C. neoformans [2]; C. neoformans, 300 μM CCCP or 20 mM sodium azide, 2 hours
  effect of pretreatment with CCCP or sodium azide on peptide-induced killing: did not protect
C. neoformans [2]; C. neoformans, 4° C.
  activity at 4° C.: hardly affected
C. neoformans [2]; 30 min
  Loss of Cell viability (%): 96 + 2%
C. neoformans [2]; 45 min
  Loss of Cell viability (%): 98 + 1%
C. neoformans [2]; 90 min
  Loss of Cell viability (%): 100 + 0%
C. albicans [3]; 50 μM, 45-90 minutes, 37° C.
  internalization of FITC-labeled peptide: internalization is observed
C. albicans [3]; [7]
  uptake at 4° C. or after pretreatment with sodium azide or CCCP: did not affect uptake
C. neoformans [4]; 50 μM, 45-90 minutes, 37° C.
  internalization of FITC-labeled peptide: internalization is observed
C. neoformans [4]; [7]
  uptake at 4° C. or after pretreatment with sodium azide or CCCP: did not affect uptake
C. albicans [5]
  release of DiSC3(5) dye (loss of membrane potential): rapid release of dye
A. actinomycetemcomitans
  internalization in bacterial cells: seen on the cell membrane and the inside
C. albicans [6]
  killing activity at 4° C.: ~90%
C. albicans [6]; C. albicans, 300 μM CCCP or 20 mM sodium azide, 2 hours
  effect of pretreatment with CCCP or sodium azide on peptide-induced killing: did not protect
C. albicans [6]; C. albicans, 1 mM Ca++ or Mg++, peptide 25 μM
  effect of 1 mM Ca++ or Mg++ on anticandidal activity: limited effect
C. albicans [6]; C. albicans, 10 mM Ca++ or Mg++, peptide 25 μM
  anticandidal activity sustained in the presence of Ca++ or Mg++: 10%
C. albicans [6]; 15 min
  Loss of Cell viability (%): 42 + 5%
C. albicans [6]; 30 min
  Loss of Cell viability (%): 52 + 1%
C. albicans [6]; 45 min
  Loss of Cell viability (%): 64 + 3%
C. albicans [6]; 90 min
  Loss of Cell viability (%): 74 + 6%
